pIC50: −log10 of the molar value.
Key:
[1] = Cytotoxicity in mock-infected MT-4 cells (MTT); details: human
Protocol: (§1) A rapid, sensitive and automated assay procedure was used for the in vitro evaluation of anti-HIV agents. An […] T4-cell line, MT-4, which was previously shown (Koyanagi et al., Int. J. Cancer, 36, 445-451, 1985) to be highly susceptible to and permissive for HIV infection, served as the target cell line. Inhibition of the HIV-induced cytopathic effect was used as the end point. The viability of both HIV- and mock-infected cells was assessed spectrophotometrically via the in situ reduction of 3-(4,5-dimethylthiazol-2-yl)-2,5-diphenyltetrazolium bromide (MTT). The 50% cytotoxic concentration (CC50 in μM) was defined as the concentration of compound that reduced the absorbance of the mock-infected control sample by 50%. The percent protection achieved by the compound in HIV-infected cells was calculated by the following formula: [formula]
(§2) whereby (ODT)HIV is the optical density measured with a given concentration of the test compound in HIV-infected cells; (ODC)HIV is the optical density measured for the control untreated HIV-infected cells; (ODC)MOCK is the optical density measured for the control untreated mock-infected cells; all optical density values were determined at 540 nm. The dose achieving 50% protection according to the above formula was defined as the 50% inhibitory concentration (IC50 in μM). The ratio of CC50 to IC50 was defined as the selectivity index (SI).

HIV-1 = assay: Inhibition of HIV-induced cytopathic effect in MT-4 cells (MTT); type: cell-based; details: dose achieving 50% protection of HIV-infected MT-4 cells, mean, number of experiments in brackets
Protocol: as §1, §2

mock-infected MT-4 cells = assay: Cytotoxicity in mock-infected MT-4 cells (MTT)
Protocol: as §1, §2

[2] = Human immunodeficiency virus 1, MT4

Structure (SMILES)	CC50 ([1]; mock-infected MT-4 cells) [µM]	further results
CN(C)c1nc(Cc2c(Cl)cccc2Cl)nc(N(c2ccc(C#N)cc2)c2ccc(C#N)cc2)n1 [Compound 38, 4,4′-[[4-[(2,6-dichlorophenyl)methyl]-6-(dimethylamino)-1,3,5-triazin-2-yl]imino]bisbenzonitrile]	> 100	–
N#Cc1ccc(Nc2nc(Cc3c(Cl)cccc3Cl)nc(NO)n2)cc1 [Compound 33, 4-[[4-[(2,6-dichlorophenyl)methyl]-6-(hydroxyamino)-1,3,5-triazin-2-yl]amino]benzonitrile]	14.1	–
CCOc1cccc(Cc2nc(N)nc(Nc3ccc(C#N)cc3)n2)c1 [Compound 48]	–	pIC50 (HIV-1): 7.13; CC50 (mock-infected MT-4 cells): > 20 µM
N#Cc1ccc(Nc2nc(Cc3c(Cl)cccc3Cl)nc(NCCCNC(N)=O)n2)cc1 [Compound 23, N-[3-[[4-[(4-cyanophenyl)amino]-6-[(2,6-dichlorophenyl)methyl]-1,3,5-triazin-2-yl]amino]propyl]urea]	36.7	–
N#Cc1ccc(Nc2nc(Cc3c(Cl)cccc3Cl)nc(NC(CCO)C(N)=O)n2)cc1 (racemic) [Compound 34, (±)-2-[[4-[(4-cyanophenyl)amino]-6-[(2,6-dichlorophenyl)amino]-6-[(2,6-dichlorophenyl)methyl]-1,3,5-triazin-2-yl]amino-4-hydroxybutanamide]	–	pIC50 (HIV-1): 7.24; CC50 (mock-infected MT-4 cells): 42.3 µM
N#Cc1ccc(Nc2nc(N)nc(Cc3c(Cl)ccc4[nH]ccc34)n2)cc1 [Compound 8, 4-[[4-amino-6-[(5-chloro-1H-indol-4-yl)methyl]-1,3,5-triazin-2-yl]amino]benzonitrile]	14.4	–
COc1cccc(Cc2nc(N)nc(Nc3ccc(C#N)cc3)n2)c1 [Compound 47]	–	pIC50 (HIV-1): 7.09; CC50 (mock-infected MT-4 cells): > 20 µM
N#Cc1ccc(Nc2nc(N)nc(Cc3c(Cl)cccc3Cl)n2)cc1 [Compound 1, 4-[[4-amino-6-[(2,6-dichlorophenyl)methyl]-1,3,5-triazin-2-yl]amino]benzonitrile]	> 100	–
CC(=O)Nc1nc(Cc2c(Cl)cccc2Cl)nc(Nc2ccc(C#N)cc2)n1 [Compound 22, N-[4-[(4-cyanophenyl)amino]-6-[(2,6-dichlorophenyl)methyl]-1,3,5-triazin-2-yl]-acetamide]	> 100	–
CC(C)NC(=O)Nc1nc(Cc2c(Cl)cccc2Cl)nc(Nc2ccc(C#N)cc2)n1 [Compound 6, N-[4-[(4-cyanophenyl)amino]-6-[(2,6-dichlorophenyl)methyl]-1,3,5-triazin-2-yl]-N′-(1-methylethyl)urea]	> 100	–
N#Cc1ccc(Nc2nc(Cc3c(Cl)cccc3Cl)nc(NN)n2)cc1 [Compound 15, 4-[[4-[(2,6-dichlorophenyl)methyl]-6-hydrazino-1,3,5-triazin-2yl]amino]benzonitrile]	44.6	–
CN(C)CCNc1nc(Cc2c(Cl)cccc2Cl)nc(Nc2ccc(C#N)cc2)n1 [Compound 29]	–	pIC50 (HIV-1): 7.30
N#Cc1ccc(Nc2nc(Cc3c(Cl)cccc3Cl)nc(NCC(=O)O)n2)cc1 [Compound 16, N-[4-[(4-cyanophenyl)amino]-6-[(2,6-dichlorophenyl)methyl]-1,3,5-triazin-2-yl]glycine]	79.9	–
CN(C)C=Nc1nc(Cc2c(Cl)cccc2Cl)nc(Nc2ccc(C#N)cc2)n1 [Compound 62, 4-[[4-[(2,6-dichlorophenyl)methyl]-6-[[(dimethylamino)methylene]amino]-1,3,5-triazin-2-yl]amino]benzonitrile]	> 100	–
N#Cc1ccc(Nc2nc(Cc3c(Cl)cccc3Cl)nc(NC(=N)N)n2)cc1 [Compound 20, N-[4-[(4-cyanophenyl)amino]-6-[(2,6-dichlorophenyl)methyl]-1,3,5-triazin-2-yl]-guanidine]	4.3	–
N#Cc1ccc(Nc2nc(N)nc(C(CC3CC3)c3c(Cl)cccc3Cl)n2)cc1 (racemic) [Compound 61]	–	pIC50 (HIV-1): 5.16; CC50 (mock-infected MT-4 cells): 53.4 µM
N#Cc1ccc(Nc2nc(Cc3c(Cl)cccc3Cl)nc(NCC(N)=O)n2)cc1 [Compound 14, [N-[4-[(4-cyanophenyl)amino]-6-[(2,6-dichlorophenyl)methyl]-1,3,5-triazin-2-yl]]aminoacetamide]	9.1	–
NC(=O)c1ccc(Nc2nc(N)nc(Cc3c(Cl)ccc4[nH]ccc34)n2)cc1 [Compound 9, 4-[[4-amino-6-[(5-chloro-1H-indol-4-yl)methyl]-1,3,5-triazin-2-yl]amino]benzamide]	54.4	–
CC(=N)Nc1nc(Cc2c(Cl)cccc2Cl)nc(Nc2ccc(C#N)cc2)n1 [Compound 28]	–	pIC50 (HIV-1): 8.52; CC50 (mock-infected MT-4 cells): > 100 µM
COC(=O)CN(c1ccc(C#N)cc1)c1nc(N)nc(Cc2c(Cl)cccc2Cl)n1 [Compound 39]	–	pIC50 (HIV-1; [2]): 7.11; CC50 [1]: > 20 µM
N#Cc1ccc(Nc2nc(Cc3c(Cl)cccc3Cl)nc(NCC(O)CO)n2)cc1 (racemic) [Compound 26, (±)-4-[[4-[(2,6-dichlorophenyl)methyl]-6-[(2,3-dihydroxypropyl)amino]-1,3,5-triazin-2-yl]amino]benzonitrile]	59.7	pIC50 (HIV-1; [2]): 7.17
